Where a SMILES comes first, the peptide text is derived from it. Bridges are numbered along the chain shown (N, C = ends). [ ]: non-standard residue; d: D form. The star is where a group is joined. Phe(4-F) = N[C@@H](Cc1ccc(F)cc1)C(=O)O; NMeA = CN[C@@H](C)C(=O)O; Nle = CCCC[C@H](N)C(=O)O; Acm = CC(=O)NC*
Assays:
guinea pigs = experiment: In vivo bronchodilator activity by tracheal instillation against histamine challenge; parameters: species or system guinea pig; conditions: anesthetized male guinea pigs, inhibition of histamine (i.v.)-induced rise in tracheal pressure
Procedure: The in vivo bronchodilator activity of VIP and VIP analogs in guinea pigs was assessed by the tracheal instillation route of administration. This technique utilized male guinea pigs (Hartley strain, Charles River) weighing 400-600 g. Animals were anesthetized with urethane (2 g/kg) intraperitoneally and a polyethylene cannula was inserted into the jugular vein for intraveneous drug administration.
The animals were tracheotomized and dosing solutions of distilled water or test compound dissolved in distilled water were administered into the trachea, approximately three-quarters the distance to the carina with a pipette. The concentration of the dosing solution was adjusted to deliver a constant volume of […]. The animals were placed supine for one minute to aid drug delivery to the lung. One minute later, spontaneous breathing was arrested with succinylcholine chloride (1.2 mg/kg) administered intraveneously, and the animals were ventilated with a HARVARD Model 680 small animal respirator set at 40 breaths/min and 4.0 cm^3 stroke volume. The animals were challenged with a maximal constrictory dose of histamine ([…], i.v.) and tracheal pressure (cm of water) was recorded from a STATHAM pressure transducer (P 32 AA).
The change in tracheal pressure was averaged for at least 3 control and 3 drug-treated animals and percent inhibition was calculated. The relative potency of compounds administered by the instillation route was determined by administering various doses of test compound and calculating the median effective dose (ED50 value). The ED50 was determined from log dose-response curves generated by at least 3 doses that caused inhibitory effects between 10% and 90%. The correlation coefficients for the regression line of each compound was always greater than 0.95.
For determination of the time course of inhibition for various compounds, the time between administration of compound and challenge with histamine was varied. The time course of activity was calculated as the time when inhibition decreased to 40%.
The results summarized in Table II show the in vivo bronchodilator activity of the VIP analogs in comparison to native VIP.

[1] = test system: guinea pig tracheal smooth muscle; experiment: Tracheal relaxant activity of VIP analogs on isolated guinea pig tracheal rings; assay type: cell-based; conditions: cumulative concentration response, relaxation as % of maximum response to VIP (10^-6 M=100%), three tissues pooled, linear regression
How it was run: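 Male guinea pig tracheal rings under 1.5 g resting tension in Krebs at 37° C, 95% O2/5% CO2, isometric tension. Cumulative concentration-response curves; relaxation as % of response to 10^-6 M VIP added at end; three tissues pooled, EC50 by linear regression.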

CCCC[C@H](NC(=O)[C@H](CCC(N)=O)NC(=O)[C@H](CCCCN)NC(=O)[C@H](CCCNC(=N)N)NC(=O)[C@H](CC(C)C)NC(=O)[C@H](CCCCN)NC(=O)[C@@H](NC(=O)[C@H](Cc1ccc(O)cc1)NC(=O)[C@H](CC(N)=O)NC(=O)[C@H](CC(=O)O)NC(=O)[C@@H](NC(=O)[C@H](Cc1ccc(F)cc1)NC(=O)[C@@H](NC(=O)[C@H](C)NC(=O)[C@H](CC(=O)O)NC(=O)[C@H](CO)NC(=O)[C@H](Cc1c[nH]cn1)NC(C)=O)C(C)C)[C@@H](C)O)[C@@H](C)O)C(=O)N[C@@H](C)C(=O)N[C@@H](C)C(=O)N[C@@H](CCCCN)C(=O)N[C@H]1CCCCNC(=O)C[C@@H](C(=O)N[C@H](C(=O)N[C@@H](CC(C)C)C(=O)N[C@H](C(=O)NCC(=O)NCC(=O)N[C@@H](CSCNC(C)=O)C(N)=O)[C@@H](C)O)C(C)C)NC(=O)[C@H](CC(N)=O)NC(=O)[C@H](CC(C)C)NC(=O)[C@H](Cc2ccc(O)cc2)NC1=O [SEQ ID NO:32, Ac-[p-F-Phe^6,Lys^12,Nle^17,Ala^19,Asp^25,Val^26,Thr^28,Gly^29,30,Cys(Acm)^31]-VIP (1-31)-NH2 cyclo (Lys^21 →Asp^25)] (Ac-HSDAV[Phe(4-F)]TDNYTKLRKQ[Nle]AAKKYLNDVLTGGC(Acm)-NH2; lactam 21-25)
Bronchodilator activity of VIP analogs in guinea pigs, ED50 (guinea pigs): 0.19 μg
EC50 [1]: 0.44 nM

CCCC[C@H](NC(=O)[C@H](CCC(N)=O)NC(=O)[C@H](CCCCN)NC(=O)[C@H](CCCNC(=N)N)NC(=O)[C@H](CC(C)C)NC(=O)[C@H](CCCCN)NC(=O)[C@@H](NC(=O)[C@H](Cc1ccc(O)cc1)NC(=O)[C@H](CC(N)=O)NC(=O)[C@H](CC(=O)O)NC(=O)[C@@H](NC(=O)[C@H](Cc1ccccc1)NC(=O)[C@@H](NC(=O)[C@H](C)NC(=O)[C@H](CC(=O)O)NC(=O)[C@H](C)NC(=O)[C@H](Cc1c[nH]cn1)NC(C)=O)C(C)C)[C@@H](C)O)[C@@H](C)O)C(=O)N[C@@H](C)C(=O)N[C@@H](C)C(=O)N[C@@H](CCCCN)C(=O)N[C@H]1CCCCNC(=O)C[C@@H](C(=O)N[C@H](C(=O)N[C@@H](CC(C)C)C(=O)N[C@H](C(N)=O)[C@@H](C)O)C(C)C)NC(=O)[C@H](CC(N)=O)NC(=O)[C@H](CC(C)C)NC(=O)[C@H](Cc2ccc(O)cc2)NC1=O [SEQ ID NO:33, Ac-[Ala^2,Lys^12,Nle^17,Ala^19,Asp^25,Val^26,Thr^28]-VIP cyclo (Lys^21 →Asp^25)] (Ac-HADAVFTDNYTKLRKQ[Nle]AAKKYLNDVLT-NH2; lactam 21-25)
Bronchodilator activity of VIP analogs in guinea pigs, ED50 (guinea pigs): 0.6 μg
EC50 [1]: 1.2 nM

CCCC[C@H](NC(=O)[C@H](CCC(N)=O)NC(=O)[C@H](CCCCN)NC(=O)[C@H](CCCNC(=N)N)NC(=O)[C@H](CC(C)C)NC(=O)[C@H](CCCCN)NC(=O)[C@@H](NC(=O)[C@H](Cc1ccc(O)cc1)NC(=O)[C@H](CC(N)=O)NC(=O)[C@H](CC(=O)O)NC(=O)[C@@H](NC(=O)[C@H](Cc1ccccc1)NC(=O)[C@@H](NC(=O)[C@H](C)NC(=O)[C@H](CC(=O)O)NC(=O)[C@H](CO)NC(=O)[C@H](C)N(C)C(C)=O)C(C)C)[C@@H](C)O)[C@@H](C)O)C(=O)N[C@@H](C)C(=O)N[C@@H](C)C(=O)N[C@@H](CCCCN)C(=O)N[C@H]1CCCCNC(=O)C[C@@H](C(=O)N[C@H](C(=O)N[C@@H](CC(C)C)C(=O)N[C@H](C(N)=O)[C@@H](C)O)C(C)C)NC(=O)[C@H](CC(N)=O)NC(=O)[C@H](CC(C)C)NC(=O)[C@H](Cc2ccc(O)cc2)NC1=O [SEQ ID NO:34, Ac-[N-Me-Ala^1,Lys^12,Nle^17,Ala^19,Asp^25,Val^26,Thr^28]-VIP cyclo (Lys^21 →Asp^25)] (Ac-[NMeA]SDAVFTDNYTKLRKQ[Nle]AAKKYLNDVLT-NH2; lactam 21-25)
Bronchodilator activity of VIP analogs in guinea pigs, ED50 (guinea pigs): 1.0 μg
EC50 [1]: 0.71 nM

CCCC[C@H](NC(=O)[C@H](CCC(N)=O)NC(=O)[C@H](CCCCN)NC(=O)[C@H](CCCNC(=N)N)NC(=O)[C@H](CC(C)C)NC(=O)[C@H](CCCCN)NC(=O)[C@@H](NC(=O)[C@H](Cc1ccc(O)cc1)NC(=O)[C@H](CC(N)=O)NC(=O)[C@H](CC(=O)O)NC(=O)[C@@H](NC(=O)[C@H](Cc1ccccc1)NC(=O)[C@@H](NC(=O)[C@H](C)NC(=O)[C@H](CC(=O)O)NC(=O)[C@H](CO)NC(=O)[C@H](Cc1c[nH]cn1)NC(C)=O)C(C)C)[C@@H](C)O)[C@@H](C)O)C(=O)N[C@@H](C)C(=O)N[C@@H](C)C(=O)N[C@@H](CCCCN)C(=O)N[C@H]1CCCCNC(=O)C[C@@H](C(=O)N[C@@H](CC(C)C)C(=O)N[C@@H](CCCCN)C(=O)N[C@@H](CCCCN)C(N)=O)NC(=O)[C@H](CC(N)=O)NC(=O)[C@H](CC(C)C)NC(=O)[C@H](Cc2ccc(O)cc2)NC1=O [SEQ ID NO:38, Ac-[Lys^12,Nle^17,Ala^19,Asp^25,Leu^26,Lys^27,28]-VIP cyclo (Lys^21 →Asp^25)] (Ac-HSDAVFTDNYTKLRKQ[Nle]AAKKYLNDLKK-NH2; lactam 21-25)
Bronchodilator activity of VIP analogs in guinea pigs, ED50 (guinea pigs): 0.09 μg
EC50 [1]: 0.13 nM

CCCC[C@H](NC(=O)[C@H](CCC(N)=O)NC(=O)[C@H](CCCCN)NC(=O)[C@H](CCCNC(=N)N)NC(=O)[C@H](CC(C)C)NC(=O)[C@H](CCCCN)NC(=O)[C@@H](NC(=O)[C@H](Cc1ccc(O)cc1)NC(=O)[C@H](CC(N)=O)NC(=O)[C@H](CC(=O)O)NC(=O)[C@@H](NC(=O)[C@H](Cc1ccccc1)NC(=O)[C@@H](NC(=O)[C@H](C)NC(=O)[C@H](CC(=O)O)NC(=O)[C@H](CO)NC(=O)[C@H](C)N(C)C(C)=O)C(C)C)[C@@H](C)O)[C@@H](C)O)C(=O)N[C@@H](C)C(=O)N[C@@H](C)C(=O)N[C@@H](CCCCN)C(=O)N[C@H]1CCCCNC(=O)C[C@@H](C(=O)N[C@@H](CC(C)C)C(=O)N[C@@H](CCCCN)C(=O)N[C@@H](CCCCN)C(N)=O)NC(=O)[C@H](CC(N)=O)NC(=O)[C@H](CC(C)C)NC(=O)[C@H](Cc2ccc(O)cc2)NC1=O [SEQ ID NO:39, Ac-[N-Me-Ala^1,Lys^12,Nle^17,Ala^19,Asp^25,Leu^26,Lys^27,28]-VIP cyclo (Lys^21 →Asp^25)] (Ac-[NMeA]SDAVFTDNYTKLRKQ[Nle]AAKKYLNDLKK-NH2; lactam 21-25)
Bronchodilator activity of VIP analogs in guinea pigs, ED50 (guinea pigs): 0.06 μg
EC50 [1]: 0.95 nM

CCCC[C@H](NC(=O)[C@H](CCC(N)=O)NC(=O)[C@H](CCCCN)NC(=O)[C@H](CCCNC(=N)N)NC(=O)[C@H](CC(C)C)NC(=O)[C@H](CCCCN)NC(=O)[C@@H](NC(=O)[C@H](Cc1ccc(O)cc1)NC(=O)[C@H](CC(N)=O)NC(=O)[C@H](CCC(=O)O)NC(=O)[C@@H](NC(=O)[C@H](Cc1ccccc1)NC(=O)[C@@H](NC(=O)[C@H](C)NC(=O)[C@H](CC(=O)O)NC(=O)[C@H](CO)NC(=O)[C@H](Cc1c[nH]cn1)NC(C)=O)C(C)C)[C@@H](C)O)[C@@H](C)O)C(=O)N[C@@H](C)C(=O)N[C@@H](C)C(=O)N[C@@H](CCCCN)C(=O)N[C@H]1CCCCNC(=O)C[C@@H](C(=O)N[C@@H](CC(C)C)C(=O)N[C@@H](CCCCN)C(=O)N[C@@H](CCCCN)C(N)=O)NC(=O)[C@H](CC(N)=O)NC(=O)[C@H](CC(C)C)NC(=O)[C@H](Cc2ccc(O)cc2)NC1=O [SEQ ID NO:40, Ac-[Glu^8,Lys^12,Nle^17,Ala^19,Asp^25,Leu^26,Lys^27,28]-VIP cyclo (Lys^21 →Asp^25)] (Ac-HSDAVFTENYTKLRKQ[Nle]AAKKYLNDLKK-NH2; lactam 21-25)
Bronchodilator activity of VIP analogs in guinea pigs, ED50 (guinea pigs): 0.022 μg
EC50 [1]: 0.45 nM

CCCC[C@H](NC(=O)[C@H](CCC(N)=O)NC(=O)[C@H](CCCCN)NC(=O)[C@H](CCCNC(=N)N)NC(=O)[C@H](CC(C)C)NC(=O)[C@H](CCCCN)NC(=O)[C@@H](NC(=O)[C@H](Cc1ccc(O)cc1)NC(=O)[C@H](CC(N)=O)NC(=O)[C@H](CCC(=O)O)NC(=O)[C@@H](NC(=O)[C@H](Cc1ccccc1)NC(=O)[C@@H](NC(=O)[C@H](C)NC(=O)[C@H](CC(=O)O)NC(=O)[C@H](CO)NC(=O)[C@H](Cc1c[nH]cn1)NC(C)=O)C(C)C)[C@@H](C)O)[C@@H](C)O)C(=O)N[C@@H](C)C(=O)N[C@@H](C)C(=O)N[C@@H](CCCCN)C(=O)N[C@H]1CCCCNC(=O)C[C@@H](C(=O)N[C@@H](CC(C)C)C(=O)N[C@@H](CCCCN)C(=O)N[C@@H](CCCCN)C(=O)N[C@@H](C)C(=O)N[C@@H](C)C(=O)N[C@@H](C)C(N)=O)NC(=O)[C@H](CC(N)=O)NC(=O)[C@H](CC(C)C)NC(=O)[C@H](Cc2ccc(O)cc2)NC1=O [SEQ ID NO:42, Ac-[Glu^8,Lys^12,Nle^17,Ala^19,Asp^25,Leu^26,Lys^27,28,Ala^29-31]-VIP cyclo (Lys^21 →Asp^25)] (Ac-HSDAVFTENYTKLRKQ[Nle]AAKKYLNDLKKAAA-NH2; lactam 21-25)
Bronchodilator activity of VIP analogs in guinea pigs, ED50 (guinea pigs): 0.072 μg
EC50 [1]: 0.61 nM

Source: patent publication US5677419A, “Cyclic vasoactive peptide analogs” (Hoffmann-La Roche Inc., priority 1994, dated 1997)
